According to patent US20110263610A1, “COMPOUNDS AND COMPOSITIONS AS ITPKB INHIBITORS” (IRM LLC, priority 2008, published 2011):
pIC50: −log10 of the molar value.

Biological target: T1, ITPKb (Mus musculus, UniProt B2RXC2)
T1 construct: murine ITPKb residues 640-942; MGSDKIHHHHHH (His6 tag from MH4 plasmid) (N); made in house; host or cells: Escherichia coli HK100
T1 sequence (B2RXC2 640-942): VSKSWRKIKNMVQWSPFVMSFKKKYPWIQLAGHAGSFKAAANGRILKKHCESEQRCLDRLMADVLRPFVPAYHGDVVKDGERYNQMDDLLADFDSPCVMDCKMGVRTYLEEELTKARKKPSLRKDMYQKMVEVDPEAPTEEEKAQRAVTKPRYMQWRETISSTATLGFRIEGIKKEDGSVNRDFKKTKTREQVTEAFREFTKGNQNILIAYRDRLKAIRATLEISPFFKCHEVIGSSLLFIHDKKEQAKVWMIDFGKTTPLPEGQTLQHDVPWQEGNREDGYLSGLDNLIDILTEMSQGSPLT
Test: Biochemical measurement of ITPKb activity (Kinase-Glo ATP depletion assay); inhibiting the phosphorylation of IP3 to IP4
Design: species or system murine
Conditions: Table 1; inhibiting the phosphorylation of IP3 to IP4; read-out: IC50
Protocol: Compounds of the present invention are assayed to measure their capacity to inhibit ITPKb according to the following assays.
The DNA sequence encoding murine ITPKb residues 640-942 is amplified from a full-length construct in mammalian expression vector pKDNZ by PCR. The 3′-primer incorporates a stop codon and an overhanging PacI site. The product is digested with Pad before being ligated into the MH4 plasmid which has been prepared by digestion with PmlI and PacI. Cloning into the MH4 plasmid adds the sequence MGSDKIHHHHHH to the N-terminus of the translated region. Mutant enzymes are made by site-directed mutagenesis using the Stratagene Quikchange kit.
ITPKb is expressed in the HK100 strain of Escherichia coli. Typically, a 4 L batch of cells is grown in LB with […] ampicillin to 0.5 A600 at 30 degrees C., before induction with 0.02% L-arabinose for 6 hours. Cells are harvested by centrifugation, and pellets are resuspended in 50 mL of 50 mM Tris (pH 8), 100 mM NaCl, 1 mM TCEP, and 0.1 mg/mL lysozyme, with 1 Complete protease inhibitor tablet (Roche). Cells are disrupted by sonication, and debris is removed by centrifugation for 40 minutes at 35000 g.
Initial purification is performed using three nickel-Sepharose Hi-Trap HP 1 mL columns (Amersham) connected in series. After application of the pellet supernatants, the bound material is washed with 20 mM Tris (pH 8.0), 20 mM imidazole, 10% glycerol (v/v), and 1 mM TCEP before elution with an imidazole gradient up to 200 mM.
Fractions containing ITPKb are identified by SDS-PAGE, and the pure fractions are concentrated and buffer exchanged using centriprep 20 15 kDa columns into 20 mM Tris (pH 8), 200 mM KCl, 5 mM MgCl2, 0.5 mM DTT, 10% glycerol, 1 μM IP3, and 20 μM ATP to a final protein concentration of 7 mg/mL.
ITPKb activity is determined using the Kinase-Glo (Promega) ATP depletion assay. The assay reaction buffer consists of 50 mM Tris (pH 8.0), 100 mM NaCl, 1 mM DTT, 10% glycerol, 5 mM MgCl2, 1 μM ATP, and 10 μM IP3 (Alexis Biochemicals). 50 nl of inhibitor is then added to each 40 μL reaction followed by a 10 μL addition of purified ITPKb (final concentration of 60 nM). The reaction mixture is incubated for 60 minutes at room temperature and stopped by the addition of an equal volume of kinase-glo reagent (Promega). Luminescence is measured using a Molecular Devices Acquest instrument.

Row | pIC50 | SMILES
1 | 7.96 | C[C@@H]1CN(Cc2c[nH]nc2-c2ccc3cnccc3c2)CCN1c1ccc(C(F)(F)F)cn1 [Example 20]
2 | 7.31 | C[C@@H]1CN(Cc2c[nH]nc2-c2ccc(C#N)c(=O)[nH]2)CCN1c1ccc(C(F)(F)F)cn1 [Example 21]
3 | 5.36 | FC(F)(F)c1ccc(N2CCN(Cc3c[nH]nc3-c3cccs3)CC2)nc1 [Example 22]
4 | < 5.00 | Cc1nc(-c2n[nH]cc2CN2CCN(c3ccc(C(F)(F)F)cn3)[C@H](C)C2)[nH]c1C [Example 25]
5 | 5.30 | C[C@@H]1CN(Cc2c[nH]nc2-c2nc3c([nH]2)CCCC3)CCN1c1ccc(C(F)(F)F)cn1 [Example 26]
6 | 5.01 | C[C@@H]1CN(Cc2c[nH]nc2-c2nc3cc(F)ccc3[nH]2)CCN1c1ccc(C(F)(F)F)cn1 [Example 27]
7 | 5.61 | C[C@@H]1CN(Cc2c[nH]nc2-c2nc3cc(C#N)ccc3[nH]2)CCN1c1ccc(C(F)(F)F)cn1 [Example 28]
8 | 8.05 | N#Cc1c[nH]c(-c2n[nH]cc2CN2CCN(c3ccc(C(F)(F)F)cn3)[C@H](C(F)(F)F)C2)c1 [Example 29]
9 | < 5.00 | C[C@@H]1CN(Cc2c[nH]nc2C(=O)Nc2nc[nH]c2C#N)CCN1c1ccc(C(F)(F)F)cn1 [Example 30]

Same assay, conditions: Table 2; inhibiting the phosphorylation of IP3 to IP4; read-out: IC50

Row | pIC50 | SMILES
10 | 6.72 | C[C@@H]1CN(Cc2c[nH]nc2-c2cc3ccccc3[nH]2)CCN1c1ccc(C(F)(F)F)cn1 [Example 8, (R)-2-(4-((3-methyl-4-(5-(trifluoromethyl)pyridin-2-yl)piperazin-1-yl)methyl)-1H-pyrazol-3-yl)-1H-indole]
11 | 8.00 | C[C@@H]1CN(Cc2c[nH]nc2C2=CCN(C=O)CC2)CCN1c1ccc(C(F)(F)F)cn1 [Example 10, (R)-4-(4-((3-methyl-4-(5-(trifluoromethyl)pyridin-2-yl)piperazin-1-yl)methyl)-1H-pyrazol-3-yl)-5,6-dihydropyridine-1(2H)-carbaldehyde]
12 | 5.83 | C[C@@H]1CN(Cc2c[nH]nc2-c2nc(C(F)(F)F)c[nH]2)CCN1c1ccc(C(F)(F)F)cn1 [Example 11, (R)-2-methyl-4-((3-(4-(trifluoromethyl)-1H-imidazol-2-yl)-1H-pyrazol-4-yl)methyl)-1-(5-(trifluoromethyl)pyridin-2-yl)piperazine]
13 | 6.32 | C[C@@H]1CN(Cc2c[nH]nc2-c2nc(C(=N)N)c[nH]2)CCN1c1ccc(C(F)(F)F)cn1 [Example 12, (R)-2-(4-((3-methyl-4-(5-(trifluoromethyl)pyridin-2-yl)piperazin-1-yl)methyl)-1H-pyrazol-3-yl)-1H-imidazole-4-carboximidamide]
14 | 6.99 | C[C@@H]1CN(Cc2c[nH]nc2-c2nc(C#N)c[nH]2)CCN1c1ccc(C(F)(F)F)cn1 [Example 13, (R)-2-(4-((3-methyl-4-(5-(trifluoromethyl)pyridin-2-yl)piperazin-1-yl)methyl)-1H-pyrazol-3-yl)-1H-imidazole-4-carbonitrile]
15 | 7.62 | C[C@@H]1CN(Cc2c[nH]nc2-c2nc(C(N)=O)c[nH]2)CCN1c1ccc(C(F)(F)F)cn1 [Example 14, (R)-2-(4-((3-methyl-4-(5-(trifluoromethyl)pyridin-2-yl)piperazin-1-yl)methyl)-1H-pyrazol-3-yl)-1H-imidazole-4-carboxamide]
16 | 5.91 | C[C@@H]1CN(Cc2c[nH]nc2-c2nc(-c3ccccc3)c[nH]2)CCN1c1ccc(C(F)(F)F)cn1 [Example 15, (R)-2-methyl-4-((3-(4-phenyl-1H-imidazol-2-yl)-1H-pyrazol-4-yl)methyl)-1-(5-(trifluoromethyl)pyridin-2-yl)piperazine]
17 | 6.01 | C[C@@H]1CN(Cc2c[nH]nc2-c2nc3cnccc3[nH]2)CCN1c1ccc(C(F)(F)F)cn1 [Example 16, (R)-2-(4-((3-methyl-4-(5-(trifluoromethyl)pyridin-2-yl)piperazin-1-yl)methyl)-1H-pyrazol-3-yl)-1H-imidazo[4,5-c]pyridine]
18 | 6.27 | C[C@@H]1CN(Cc2c[nH]nc2C=C2NC(=O)NC2=O)CCN1c1ccc(C(F)(F)F)cn1 [Example 17, R-5-((4-((3-methyl-4-(5-(trifluoromethyl)pyridin-2-yl)piperazin-1-yl)methyl)-1H-pyrazol-3-yl)methylene)imidazolidine-2,4-dione]
19 | 6.35 | C[C@@H]1CN(Cc2c[nH]nc2C(=O)Nc2ccncc2)CCN1c1ccc(C(F)(F)F)cn1 [Example 18, (R)-4-((3-methyl-4-(5-(trifluoromethyl)pyridin-2-yl)piperazin-1-yl)methyl)-N-(pyridin-4-yl)-1H-pyrazole-3-carboxamide]
20 | 7.40 | C[C@@H]1CN(Cc2n[nH]nc2-c2ccc(C#N)cc2)CCN1c1ccc(C(F)(F)F)cc1 [Example 19, (R)-4-(5-((3-methyl-4-(4-(trifluoromethyl)phenyl)piperazin-1-yl)methyl)-2H-1,2,3-triazol-4-yl)benzonitrile]

Row | SMILES | pIC50
21 | C[C@@H]1CN(Cc2c[nH]nc2C2=CCNCC2)CCN1c1ccc(C(F)(F)F)cn1 [Example 9, (R)-2-methyl-4-((3-(1,2,3,6-tetrahydropyridin-4-yl)-1H-pyrazol-4-yl)methyl)-1-(5-(trifluoromethyl)pyridin-2-yl)piperazine] | 6.56

Same assay, conditions: read-out: IC50 in inhibiting the phosphorylation of IP3 to IP4

Row | pIC50 | SMILES
22 | 8.05 | C[C@@H]1CN(Cc2c[nH]nc2-c2cc(C#N)c[nH]2)CCN1c1ccc(C(F)(F)F)cn1 [Example 1, (R)-5-(4-((3-methyl-4-(5-(trifluoromethyl)pyridin-2-yl)piperazin-1-yl)methyl)-1H-pyrazol-3-yl)-1H-pyrrole-3-carbonitrile]
23 | 8.52 | C[C@@H]1CN(Cc2c[nH]nc2-c2cc(C(N)=O)c[nH]2)CCN1c1ccc(C(F)(F)F)cn1 [Example 2, (R)-5-(4-((3-methyl-4-(5-(trifluoromethyl)pyridin-2-yl)piperazin-1-yl)methyl)-1H-pyrazol-3-yl)-1H-pyrrole-3-carboxamide]
24 | 7.96 | CNC(=O)c1c[nH]c(-c2n[nH]cc2CN2CCN(c3ccc(C(F)(F)F)cn3)[C@H](C)C2)c1 [Example 3, (R)—N-methyl-5-(4-((3-methyl-4-(5-(trifluoromethyl)pyridin-2-yl)piperazin-1-yl)methyl)-1H-pyrazol-3-yl)-1H-pyrrole-3-carboxamide]
25 | 7.09 | C[C@@H]1CN(Cc2c[nH]nc2-c2ccc(C#N)[nH]2)CCN1c1ccc(C(F)(F)F)cn1 [Example 4, (R)-5-(4-((3-methyl-4-(5-(trifluoromethyl)pyridin-2-yl)piperazin-1-yl)methyl)-1H-pyrazol-3-yl)-1H-pyrrole-2-carbonitrile]
26 | 7.55 | C[C@@H]1CN(Cc2c[nH]nc2-c2ccc(C(N)=O)[nH]2)CCN1c1ccc(C(F)(F)F)cn1 [Example 5, (R)-5-(4-((3-methyl-4-(5-(trifluoromethyl)pyridin-2-yl)piperazin-1-yl)methyl)-1H-pyrazol-3-yl)-1H-pyrrole-2-carboxamide]
27 | 8.22 | C[C@@H]1CN(Cc2c[nH]nc2-c2c[nH]c(C#N)c2)CCN1c1ccc(C(F)(F)F)cn1 [Example 6, (R)-4-(4-((3-methyl-4-(5-(trifluoromethyl)pyridin-2-yl)piperazin-1-yl)methyl)-1H-pyrazol-3-yl)-1H-pyrrole-2-carbonitrile]
28 | 8.70 | C[C@@H]1CN(Cc2c[nH]nc2-c2c[nH]c(C(N)=O)c2)CCN1c1ccc(C(F)(F)F)cn1 [Example 7, (R)-4-(4-((3-methyl-4-(5-(trifluoromethyl)pyridin-2-yl)piperazin-1-yl)methyl)-1H-pyrazol-3-yl)-1H-pyrrole-2-carboxamide]
